Positions of bridges follow the written chain, without caps; N, C: chain ends. Non-standard residues stand in square brackets, D forms with d. Residues, ends and D or L forms follow the SMILES beside them. Phe(3,4-(OMe)2) = COc1ccc(C[C@H](N)C(=O)O)cc1OC; NMeNle = CCCC[C@H](NC)C(=O)O; NMeS = CN[C@@H](CO)C(=O)O; NMeA = CN[C@@H](C)C(=O)O; Nle = CCCC[C@H](N)C(=O)O; Sar = CNCC(=O)O
Experiments:
[1] = target: T1, LK35.2-hPD-L1 cells / PE-labeled PD-1-Ig (Homo sapiens, UniProt Q9NZQ7); test: LK35.2-hPD-L1 cell binding high-content screening assay; format: cell-based; settings: cluster symbol; cell line of CBA not given (LK35.2-hPD-L1 or 293T-hPD-L1); read-out: CBA IC50 cluster
T1 construct: expressed in transfected cells; host or cells: LK35.2 mouse B cell line
T1 sequence (Q9NZQ7 19-290): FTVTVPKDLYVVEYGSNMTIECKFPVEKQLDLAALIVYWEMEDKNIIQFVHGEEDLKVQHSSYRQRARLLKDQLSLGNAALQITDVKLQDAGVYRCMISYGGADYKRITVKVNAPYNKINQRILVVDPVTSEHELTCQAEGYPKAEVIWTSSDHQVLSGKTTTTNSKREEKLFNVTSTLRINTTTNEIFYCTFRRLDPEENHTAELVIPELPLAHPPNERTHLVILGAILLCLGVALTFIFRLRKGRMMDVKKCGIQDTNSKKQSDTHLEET
Procedure, shortened: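 Binding of PE-conjugated human PD-1-Ig (1 nM final) to human PD-L1 stably expressed on a mouse B-cell line (LK35.2) was measured by high-content imaging after washes. Compound and labeled PD-1-Ig were co-incubated 1 h at 37 °C with cells in RPMI/10% FCS.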

[2] = target: T2, Human PD-L1/PD-1 (Homo sapiens, UniProt Q9NZQ7); test: HTRF PD-1-Ig/PD-L1-His binding assay (human PD-L1); settings: cluster symbol; read-out: HTRF IC50 cluster
T2 construct: made in house; host or cells: HEK293T
T2 sequence (Q9NZQ7 with tags, fused parts or gaps): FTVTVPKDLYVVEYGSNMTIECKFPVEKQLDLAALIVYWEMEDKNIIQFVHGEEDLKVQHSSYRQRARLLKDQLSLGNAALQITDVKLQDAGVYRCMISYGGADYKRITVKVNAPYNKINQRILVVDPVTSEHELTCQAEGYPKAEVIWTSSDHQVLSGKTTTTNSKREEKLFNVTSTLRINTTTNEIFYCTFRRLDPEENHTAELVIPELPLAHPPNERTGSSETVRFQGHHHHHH
Procedure, shortened: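 Interaction of Fc-tagged soluble PD-1 with His-tagged soluble PD-L1 is monitored by time-resolved FRET. Donor is europium cryptate anti-Ig (1 nM final) and acceptor is APC anti-His (20 nM final). Assay buffer is dPBS with 0.1% BSA and 0.05% Tween-20.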

Row | SMILES | IC50 [1] | IC50 [2]
1 | CCCC[C@@H]1NC(=O)[C@H](CCCC)N(C)C(=O)[C@H](CCCC)N(C)C(=O)[C@H](Cc2c[nH]c3ccccc23)NC(=O)[C@H](CO)NC(=O)[C@H](Cc2c[nH]c3ccccc23)NC(=O)CN(C)C(=O)[C@H](CC(C)C)NC(=O)[C@H](Cc2cnc[nH]2)NC(=O)[C@@H]2CCCN2C(=O)[C@H](CC(N)=O)NC(=O)[C@H](C)N(C)C(=O)[C@H](Cc2ccccc2)NC(=O)CSC[C@@H](C(=O)NCC(N)=O)NC1=O [Example 1071] ({CH2CO}-F[NMeA]NPHL[Sar]WSW[NMeNle][NMeNle][Nle]CG-NH2; thioether N-14) | > 74.3 nM | > 30.5 nM
2 | CCCC[C@H]1C(=O)N(C)[C@@H](CCCC)C(=O)N[C@@H](CCCNC(=N)N)C(=O)N[C@@H](C(=O)NCC(N)=O)CSCC(=O)N[C@@H](Cc2cnc[nH]2)C(=O)N(C)[C@@H](C)C(=O)N[C@@H](CC(N)=O)C(=O)N2CCC[C@H]2C(=O)N[C@@H](Cc2cnc[nH]2)C(=O)N[C@@H](CC(C)C)C(=O)N(C)CC(=O)N[C@@H](Cc2c[nH]c3ccccc23)C(=O)N[C@@H](CO)C(=O)N[C@@H](Cc2c[nH]c3ccccc23)C(=O)N1C [Example 1072] ({CH2CO}-H[NMeA]NPHL[Sar]WSW[NMeNle][NMeNle]R[dC]G-NH2; thioether N-14) | > 74.3 nM | > 30.5 nM
3 | CCCC[C@H]1C(=O)N(C)[C@@H](CCCC)C(=O)N[C@@H](CCCNC(=N)N)C(=O)N[C@H](C(=O)NCC(N)=O)CSCC(=O)N[C@@H](Cc2ccccc2)C(=O)N(C)[C@@H](C)C(=O)N[C@@H](CC(N)=O)C(=O)N2CCC[C@H]2C(=O)N[C@@H](Cc2cnc[nH]2)C(=O)N[C@@H](CC(C)C)C(=O)N(C)CC(=O)N[C@@H](Cc2c[nH]cn2)C(=O)N[C@@H](CO)C(=O)N[C@@H](Cc2c[nH]c3ccccc23)C(=O)N1C [Example 1073] ({CH2CO}-F[NMeA]NPHL[Sar]HSW[NMeNle][NMeNle]RCG-NH2; thioether N-14) | > 74.3 nM | > 30.5 nM
4 | CCCC[C@H]1C(=O)N(C)[C@@H](CCCC)C(=O)N[C@@H](CCCNC(=N)N)C(=O)N[C@H](C(=O)NCC(N)=O)CSCC(=O)N[C@@H](Cc2ccccc2)C(=O)N(C)[C@@H](C)C(=O)N[C@@H](CC(N)=O)C(=O)N2CCC[C@H]2C(=O)N[C@@H](Cc2cnc[nH]2)C(=O)N[C@@H](CC(C)C)C(=O)N[C@@H](CCC(N)=O)C(=O)N[C@@H](Cc2c[nH]c3ccccc23)C(=O)N[C@@H](CO)C(=O)N[C@@H](Cc2c[nH]c3ccccc23)C(=O)N1C [Example 1074] ({CH2CO}-F[NMeA]NPHLQWSW[NMeNle][NMeNle]RCG-NH2; thioether N-14) | > 74.3 nM | > 30.5 nM
5 | CCCC[C@H]1C(=O)N(C)[C@@H](CCCC)C(=O)N[C@@H](CCCNC(=N)N)C(=O)N[C@H](C(=O)NCC(N)=O)CSCC(=O)N[C@@H](Cc2ccccc2)C(=O)N(C)[C@@H](C)C(=O)N[C@@H](CC(N)=O)C(=O)N2CCC[C@H]2C(=O)N[C@@H](Cc2cnc[nH]2)C(=O)N[C@@H](CC(C)C)C(=O)N[C@@H](CC(N)=O)C(=O)N[C@@H](Cc2c[nH]c3ccccc23)C(=O)N[C@@H](CO)C(=O)N[C@@H](Cc2c[nH]c3ccccc23)C(=O)N1C [Example 1075] ({CH2CO}-F[NMeA]NPHLNWSW[NMeNle][NMeNle]RCG-NH2; thioether N-14) | > 74.3 nM | > 30.5 nM
6 | CCCC[C@H]1C(=O)N(C)[C@@H](CCCC)C(=O)N[C@@H](CCCNC(=N)N)C(=O)N[C@H](C(=O)NCC(=O)O)CSCC(=O)N[C@@H](Cc2ccccc2)C(=O)N(C)[C@@H](C)C(=O)N[C@@H](CC(N)=O)C(=O)N2CCC[C@H]2C(=O)N[C@@H](Cc2cnc[nH]2)C(=O)N[C@@H](CC(C)C)C(=O)N(C)CC(=O)N[C@@H](Cc2c[nH]c3ccccc23)C(=O)N[C@@H](CO)C(=O)N[C@@H](Cc2c[nH]c3ccccc23)C(=O)N1C [Example 1076] ({CH2CO}-F[NMeA]NPHL[Sar]WSW[NMeNle][NMeNle]RCG-OH; thioether N-14) | 4.78 to 72.9 nM | 6.76 to 30.3 nM
7 | CCCC[C@H]1C(=O)N(C)[C@@H](CCCC)C(=O)N[C@@H](CCCNC(=N)N)C(=O)N[C@H](C(=O)NCC(N)=O)CSCC(=O)N[C@@H](Cc2ccccc2)C(=O)N(C)[C@@H](C)C(=O)N[C@@H](CC(N)=O)C(=O)N2CCC[C@H]2C(=O)N[C@@H](CCCCN)C(=O)N[C@@H](CC(C)C)C(=O)N(C)CC(=O)N[C@@H](Cc2c[nH]c3ccccc23)C(=O)N[C@@H](CO)C(=O)N[C@@H](Cc2c[nH]c3ccccc23)C(=O)N1C [Example 1077] ({CH2CO}-F[NMeA]NPKL[Sar]WSW[NMeNle][NMeNle]RCG-NH2; thioether N-14) | > 74.3 nM | 6.76 to 30.3 nM
8 | CCCC[C@H]1C(=O)N(C)[C@@H](CCCC)C(=O)N[C@@H](CCCNC(=N)N)C(=O)N[C@H](C(=O)NCC(N)=O)CSCC(=O)N[C@@H](Cc2ccccc2)C(=O)N(C)[C@@H](C)C(=O)N[C@@H](CC(N)=O)C(=O)N2CCC[C@H]2C(=O)N[C@@H](Cc2cnc[nH]2)C(=O)N[C@@H](CC(C)C)C(=O)N(C)CC(=O)N[C@@H](Cc2c[nH]c3ccccc23)C(=O)N(C)[C@@H](CO)C(=O)N[C@@H](Cc2c[nH]c3ccccc23)C(=O)N1C [Example 1078] ({CH2CO}-F[NMeA]NPHL[Sar]W[NMeS]W[NMeNle][NMeNle]RCG-NH2; thioether N-14) | > 74.3 nM | > 30.5 nM
9 | CCCC[C@H]1C(=O)N(C)[C@@H](CCCC)C(=O)N[C@@H](CCCNC(=N)N)C(=O)N[C@H](C(=O)NCC(N)=O)CSCC(=O)N[C@@H](Cc2ccccc2)C(=O)N(C)[C@@H](C)C(=O)N[C@@H](CC(N)=O)C(=O)N2CCC[C@H]2C(=O)N[C@@H](Cc2cnc[nH]2)C(=O)N[C@@H](CC(C)C)C(=O)N(C)CC(=O)N[C@@H](Cc2ccc(OC)c(OC)c2)C(=O)N[C@@H](CO)C(=O)N[C@@H](Cc2c[nH]c3ccccc23)C(=O)N1C [Example 1080] ({CH2CO}-F[NMeA]NPHL[Sar][Phe(3,4-(OMe)2)]SW[NMeNle][NMeNle]RCG-NH2; thioether N-14) | > 74.3 nM | > 30.5 nM
10 | CCCC[C@H]1C(=O)N(C)[C@@H](CCCC)C(=O)N[C@@H](CCCNC(=N)N)C(=O)N[C@H](C(=O)NCC(N)=O)CSCC(=O)N[C@@H](Cc2ccccc2)C(=O)N(C)[C@@H](C)C(=O)N[C@H](C)C(=O)N2CCC[C@H]2C(=O)N[C@@H](Cc2cnc[nH]2)C(=O)N[C@@H](CC(C)C)C(=O)N(C)CC(=O)N[C@@H](Cc2c[nH]c3ccccc23)C(=O)N[C@@H](CO)C(=O)N[C@@H](Cc2c[nH]c3ccccc23)C(=O)N1C [Example 1081] ({CH2CO}-F[NMeA][dA]PHL[Sar]WSW[NMeNle][NMeNle]RCG-NH2; thioether N-14) | > 74.3 nM | > 30.5 nM
11 | CCCC[C@H]1C(=O)N(C)[C@@H](CCCC)C(=O)N[C@@H](CCCNC(=N)N)C(=O)N[C@H](C(=O)NCC(N)=O)CSCC(=O)N[C@@H](Cc2ccccc2)C(=O)N(C)[C@@H](C)C(=O)N[C@@H](CC(C)C)C(=O)N2CCC[C@H]2C(=O)N[C@@H](Cc2cnc[nH]2)C(=O)N[C@@H](CC(C)C)C(=O)N(C)CC(=O)N[C@@H](Cc2c[nH]c3ccccc23)C(=O)N[C@@H](CO)C(=O)N[C@@H](Cc2c[nH]c3ccccc23)C(=O)N1C [Example 1082] ({CH2CO}-F[NMeA]LPHL[Sar]WSW[NMeNle][NMeNle]RCG-NH2; thioether N-14) | > 74.3 nM | > 30.5 nM

Reference: patent publication US9850283B2, “Macrocyclic inhibitors of the PD-1/PD-L1 and CD80(B7-1)/PD-L1 protein/protein interactions” (BRISTOL-MYERS SQUIBB COMPANY, priority 2013, dated 2017)
